Where two headings read alike, the source gives them in different places.
What was measured:
[1] = Example 5: penetration through the human cornea (diffusion chamber); details: room temperature
Description: A human cornea was clamped in a specially designed chamber. The upper compartment was filled with the disinfectant, while the lower one contained the buffer solution. The system was equilibrated for 2, 4, and 6 hours at room temperature, and afterwards the oxidation capacity was determined in the buffer solution of the lower compartment.

[2] = rabbit eye (Nagl et al.); cited from earlier work
[3] = human eye (Nagl et al.); cited from earlier work
[4] = Example 2: stability of a pure monochloramine solution (UV spectrum); assay type: physicochemical; details: three days storage in the refrigerator at 0-3° C.
Description: A solution of 1 g each of N-chlorotaurine and ammonium chloride in 100 mL water was distilled in a rotavapor (water stream vacuum, water bath temperature 50° C.). The distillate contained, according to the UV spectrum, […] pure monochloramine (NH2Cl, absorption band at λmax=244 nm, A244=0.9812, d=0.1 cm, ε244=461.6 L mol^−1 cm^−1). After three days storage in the refrigerator at 0-3° C., the band at 244 disappeared, while two bands at 203 nm (A=1.146) and 294 nm (A0 0.148) appeared which are characteristic for the chromophor —NCl2. Gottardi et al., supra.

bacteria = experiment: Killing tests, bacterial strains in general; assay type: cell-based; details: preliminary experiments, without NCT
Description: Microbicidal activity. […] The impact of ammonium chloride on the microbicidal activity of NCT could be confirmed in several bacterial strains (FIG. 4).
Bacterial strains, Staphylococcus aureus ATCC 25923 and 6538, Staphylococcus epidermidis ATCC 12228, Escherichia coli ATCC 11229, Proteus mirabilis ATCC 14153, Pseudomonas aeruginosa ATCC 27853, and a clinical isolate of […] deep-frozen for storage were grown overnight on tryptic soy agar (Merck, Darmstadt, Germany). Colonies from this agar were grown in tryptic soy broth (Merck, Darmstadt, Germany) at 37° C. overnight and washed twice with saline.
Killing tests. Bacteria were diluted in buffered test solution to concentrations of 1×10^6 to 5×10^7 CFU/mL. Immediately and subsequent to different incubation times at room temperature, aliquots were removed, and NCT with or without ammonium chloride or plain monochloramine was inactivated by 10-fold dilution in 0.3% sodium thiosulfate. Aliquots (50 μL) of these solutions as well as of 100-fold further dilutions in saline were spread onto tryptic soy agar plates with an automatic spiral plater (Don Whitley Scientific Limited, West Yorkshire, UK) in duplicates allowing a detection limit of 200 CFU/mL. Plates were grown at 37° C., and CFU were counted after 24 and 48 hours. Controls without NCT were treated the same way.

[5] = Stability of active chlorine compound with ammonium salt in water (pH, oxidation capacity); assay type: physicochemical
[6] = with ammonium, 0.1 M phosphate buffer
[7] = with excess ammonium, no buffer

Compound: O=S(=O)(O)CCNCl [NCT, N-chlorotaurine]
- Diffused oxidation capacity, from the starting value in the upper compartment ([1]; after 2 hours): 1.3%
- Diffused oxidation capacity, from the starting value in the upper compartment ([1]; after 4 hours): 4.8%
- Diffused oxidation capacity, from the starting value in the upper compartment ([1]; after 6 hours): 25.4%
- Tolerability [2]: good tolerability
- Tolerability [3]: good tolerability

Compound: NCl [monochloramine]
- Conversion of NH2Cl to NHCl2 [4]: complete conversion of NH2Cl to NHCl2

Compound: Cl.N [Ammonium chloride]
- Influence on viability (bacteria): no influence on viability

Compound: O=c1nc([O-])n(Cl)c(=O)n1Cl.[Na+] [sodium dichloro-isocyanurate]
- Behaviour with ammonium compared with chloramine-T [5]: behave in the same manner

Compound: [Ca+2].[O-]Cl.[O-]Cl [Calcium hypochlorite]
- Behaviour with ammonium compared with chloramine-T [5]: behave in the same manner

Compound: Cc1ccc(S(=O)(=O)NCl)cc1.[Na] [chloramine-T, N-chloro-4-toluenesulfonamide sodium]
- Loss of oxidation capacity within 1 hour [5, 6]: 90%
- pH within 2 hours [5, 6]: 6.3
- pH, start [5, 6]: 7.0
- pH within 8 minutes [5, 7]: 2.9
- pH, start [5, 7]: 6.8
